The values that follow come from patent publication US6713459B1, “Methods for the prophylactic and therapeutic treatment of cardiac tissue damage” (East Tennessee State University, priority 2000, dated 2004).

One experiment concerns NF-κB. Kind of experiment: EMSA of NF-κB nuclear binding activity in liver and lung after cecal ligation and puncture (CLP). The conditions noted are these: for decrease of liver NF-κB binding activity / decrease of lung NF-κB binding activity: tissue 3 hours after CLP. The class given is in vivo, ICR/HSD mice. Here is the method: (§1) Nuclear extracts were prepared by homogenizing tissue in hypotonic buffer containing protease inhibitors and incubating the homogenates on ice for approximately 30 minutes with gentle agitation. After cells were lysed, nuclei were collected by centrifugation (14,000 revolutions/min for 5 minutes). Nuclear proteins were extracted by incubating the nuclear fraction on ice for 30 minutes in hypertonic salt buffer containing protease inhibitors. Nuclear extract supernatant was harvested after centrifugation, then stored at −80° C. Protein was quantified by the BCA microprotein assay (Pierce, Rockford, Ill.).
(§2) The electrophoretic mobility shift assay (EMSA) was performed using double-stranded consensus binding site oligonucleotides for NF-κB and NF-IL6 (C/EBP, CCAAT enhancer binding protein), obtained from Santa Cruz Biotechnology (Santa Cruz, Calif.). Oligonucleotides were end-labeled with [γ-^32P]-labeled adenosine triphosphate (Amersham, Arlington Heights, Ill.) with T4 polynucleotide kinase (Promega, Madison, Wis.), using methods known to those of skill in the art. Binding assays were performed in 10 μl of binding reaction mixture containing 10 μg of nuclear proteins and [γ-^32P]-labeled NF-κB or NF-IL6 oligonucleotides. The binding reaction mixture was incubated at room temperature for 20 minutes, then electrophoresed on 4% non-denaturing polyacrylamide gel electrophoresis (PAGE) gels. Specificity of binding was confirmed by addition of a 10-fold excess of cold oligonucleotide to separate reaction mixtures. A 10-fold excess of cold oligonucleotide containing the AP-1 binding site was added to separate reaction mixtures as an additional control. After PAGE, gels were dried and exposed to Kodak X-omat® film at −70° C. Autoradiograms were quantified by scanning densitometry with a Sun IPC workstation running Bioimage® software (Millipore, Bedford, Mass.).
(§3) In studies of (1→3)-β-D-glucan effects on tissue damage due to sepsis, blood (˜0.3 ml) was obtained by open heart puncture from groups of 3 ICR/HSD mice subjected to cecal ligation and puncture (CLP), performed according to the method of Baker et al., Suryery (1983) 94: 331-335, as described by Ayala et al., Circ. Shock (1992) 36: 191-199. Mice subjected to laparotomy only (LO) served as surgical and anesthesia controls. Negative controls were not subjected to either procedure. Blood samples were collected from each group at 1, 2, 4, 8, and 24 hours after surgery. Samples were inoculated into prereduced anaerobically sterilized chopped meat carbohydrate broth (Carr-Scarborough, Stone Mountain, Ga.) under a constant stream of anaerobic carbon dioxide in a VPI Inoculator (Bellco Glass, Vineland, N.J.). After mixing, 1 ml of inoculated broth was aseptically removed from each 6-ml rubber-stoppered anaerobic tube into a sterile loose-capped aerobic culture tube. Both aerobic and anaerobic culture tubes were incubated at 37° C. for 72 hours.
(§4) In pretreatment protocols, 45 mice were randomly divided into 3 groups of 15 mice per group. Group 1 received isovolumetric saline solution intraperitoneally 1 hour before CLP. Group 2 received glucan phosphate (1 mg/mouse=50 mg/kg, intraperitoneally) 1 hour prior to CLP. Group 3 received scleroglucan (1 mg/mouse=50 mg/kg, intraperitoneally) 1 hour prior to CLP. To assess tissue transcription factor activation and cytokine messenger RNA (mRNA) levels, liver and lung tissue were harvested from 5 mice per group at 3 hours after surgery. […] Laparoscopy-only (LO) controls and negative controls received the same saline, glucan phosphate, and scleroglucan treatment as CLP mice.
(§5) In post-treatment protocols, 30 mice were subjected to CLP. These 30 mice were then randomly divided into 2 groups of 15 mice per group. Group 1 received isovolumetric saline solution intravenously 15 minutes post surgery. Group 2 received glucan phosphate (1 mg/mouse=50 mg/kg, intravenously) 15 minutes postsurgery. […]

Another experiment deals with NF-IL6. Kind of experiment: EMSA of NF-IL6 nuclear binding activity in liver and lung after CLP. The class given is in vivo, ICR/HSD mice. The following applies: for decrease of liver NF-IL6 binding activity / decrease of lung NF-IL6 binding activity: tissue 3 hours after CLP. How it is done: as §1, §2, §3, §4, §5
For experiment [1], the system named is ICR/HSD mice subjected to CLP (polymicrobial sepsis). Kind of experiment: survival of mice with polymicrobial sepsis induced by CLP. The class given is in vivo. The following applies: for long-term survival rate: CLP control 20%. How it is done: as §3, §4
In post-treatment protocols, 30 mice were subjected to CLP. These 30 mice were then randomly divided into 2 groups of 15 mice per group. […]
(§6) Survival trends were compared with the Cox proportional hazard and log-rank procedures. […] Differences in bacteremia between LO and CLP groups were assessed with exact probability level determinations. […]

The target of experiment [2] is macrophage (1→3)-β-D-Glucan receptor. The conditions noted are these: cited from earlier work.
Another experiment deals with TNF-α mRNA. Briefly: RT-PCR of TNF-α mRNA levels in liver and lung after CLP. It counts as in vivo, ICR/HSD mice. How it is done:
(§7) Cytokine reverse transcriptase-polymerase chain reaction (RT-PCR) assays were performed using standard techniques known to those of skill in the art. Upstream and downstream primers for murine TNF-α and IL-6 were used to detect presence of those cytokines. Reduced glyceraldehyde phosphate dehydrogenase (GAPDH) was used as the gene transcript control.
as §3
(§8) In pretreatment protocols, 45 mice were randomly divided into 3 groups of 15 mice per group. Group 1 received isovolumetric saline solution intraperitoneally 1 hour before CLP. Group 2 received glucan phosphate (1 mg/mouse=50 mg/kg, intraperitoneally) 1 hour prior to CLP. Group 3 received scleroglucan (1 mg/mouse=50 mg/kg, intraperitoneally) 1 hour prior to CLP. […]
as §6

For a further experiment, the system named is IL-6 mRNA. Briefly: RT-PCR of IL-6 mRNA levels in liver and lung after CLP. It counts as in vivo, ICR/HSD mice. How it is done:
as §7, §3, §8, §6

The test system of experiment [3] is rat hearts subjected to ischemia/reperfusion. Kind of experiment: myocardial infarct size after LAD occlusion and reperfusion, TTC staining. The conditions noted are these: 40 mg/kg intravenously 5 min after LAD occlusion, 4 hr reperfusion. It counts as in vivo, Sprague-Dawley rats. Here is the method: Ischemia/reperfusion protocols were performed using Sprague-Dawley rats (Harlan Sprague-Dawley, Indianapolis, Indiana). Left anterior descending (LAD) coronary artery occlusion was performed by tying off the LAD artery near its origin using a suture. Glucan phosphate was employed in the ischemia reperfusion (I/R) studies.
Sprague-Dawley rats (250-300 g) were treated, with (1→3)-β-D-glucans at a concentration of 40 mg/kg one hour before the hearts were subjected to 45 minutes of occlusion of the left anterior descending (LAD) coronary artery, followed by reperfusion for 4 hours. At the completion of the experimental protocol, the heart was removed, rinsed free of blood, stained with 1% Evans Blue, and sectioned into five slices, followed by incubation in triphenyltetrazolium chloride (TTC) solution. Viable myocardium (risk area) was stained with TTC while the necrotic myocardium was pale white. The area of infarction on both sides of each slice was analyzed by an image analyzer (Alpha Imager 2000), corrected for each slice weight and summed for each left ventricle. The infarct areas were expressed as a percentage of risk area as well as a percentage of left ventricle and the risk areas were expressed as a percentage of left ventricle.
Glucan phosphate (40 mg/kg) was administered to rats via intravenous route 5 min. after the rat hearts were subjected to occlusion of the left afterior descending (LAD) coronary artery, followed by 4 hr. reperfusion. Subsequently, the hearts were harvested and the infarct size/area at risk was determined using TTC staining and image analysis as described previously. FIG. 19 illustrates results, with infarct size expressed as percentage of risk area and risk area expressed as percentage of the left ventricle.

Where [4] appears, read: pretreatment 50 mg/kg 1 hour before CLP.
Setting [5] is: pretreatment 50 mg/kg, 3 hours after CLP.
Where [6] appears, read: posttreatment 50 mg/kg intravenously 15 minutes after CLP.
[7] abbreviates: posttreatment 50 mg/kg intravenously 15 minutes post surgery.

Like-named read-outs stand apart in the source and are kept apart here.

On to scleroglucan, for which, in the experiment with NF-κB (setting [4]), the “decrease of liver NF-κB binding activity” value was found to be 54%. Besides, the “effect on lung NF-κB nuclear binding activity” value in the experiment with NF-κB (setting [5]) is “inhibited”. Besides, the “decrease of liver NF-IL6 binding activity” value in the experiment on NF-IL6 (setting [4]) amounted to 38%. Besides, the “effect on lung NF-IL6 nuclear binding activity” value in the experiment with NF-IL6 (setting [5]) is recorded as “inhibited”. For the same substance, the “effect on long-term survival” value in experiment [1] (50 mg/kg intraperitoneally 1 hour before CLP) was “increased long-term survival”. Besides, in experiment [2] (high affinity, read-out: affinity for the (1→3)-β-D-glucan receptor), the Kd was 0.011 µM.
For the substance glucan phosphate, in the experiment on NF-κB (setting [6]), the “decrease of liver NF-κB binding activity” value is recorded as 42% and the “decrease of lung NF-κB binding activity” value is given as 54%. In addition, in the experiment with NF-κB (setting [4]), the “decrease of liver NF-κB binding activity” value worked out at 58% and the “decrease of lung NF-κB binding activity” value stood at 81%. Further, in the experiment with NF-IL6 (setting [6]), the “decrease of liver NF-IL6 binding activity” value is 95% and the “decrease of lung NF-IL6 binding activity” value stood at 63%. In the experiment on NF-IL6 (setting [4]), the “decrease of liver NF-IL6 binding activity” value was determined as 77% and the “decrease of lung NF-IL6 binding activity” value is on record as 68%. Moreover, in the experiment with TNF-α mRNA (setting [7]), the “suppression of hepatic TNF-α mRNA levels relative to CLP controls” value was found to be 31% and the “suppression of lung TNF-α mRNA levels relative to CLP controls” value stood at 28%. The “suppression of hepatic TNF-α mRNA levels relative to CLP controls” value with TNF-α mRNA (setting [5]) stood at 44%. In addition, in the experiment on IL-6 mRNA (setting [7]), the “effect on hepatic IL-6 mRNA levels” value is listed as “not altered” and the “suppression of lung IL-6 mRNA levels relative to CLP controls” value is 30%. In the experiment with IL-6 mRNA (setting [5]), the “suppression of hepatic IL-6 mRNA levels relative to CLP controls” value stood at 49%. The same substance displayed a long-term survival rate in experiment [1] (single posttreatment injection 50 mg/kg intravenously 15 minutes after CLP) of 65%. Also, the long-term survival rate in experiment [1] (single prophylactic injection 50 mg/kg intraperitoneally 1 hour before CLP) is recorded as 65%. In experiment [3], the “reduction of infarct size/area at risk compared to control IR group” value turned out to be 53%. Besides, the “infarct size/area at risk” value in experiment [3] (mean±SEM, control IR 51.03±3.69%) amounted to 24.39±2.00%. Further, in experiment [2] (low affinity, read-out: affinity for the macrophage (1→3)-β-D-glucan receptor), the Kd was 24 µM.
